The values that follow come from patent US11974571B1, “3-5-dinitro-N-(pyrimidin-2-ylcarbamothioyl)benzamide as an eco-friendly insecticidal agent against Spodoptera littoralis (boisd.)” (KING FAISAL UNIVERSITY, priority 2023, dated 2024).

In the data set the test system is Spodoptera littoralis. Nature of the data set: Insecticidal bioassay screening (castor leaf dip), laboratory strain of cotton leafworm. The format is in vivo. The following applies: for Toxicity index %: 72 hrs, Diflubenzuron's LC50 / the compound's LC50 × 100; for LC50: Spodoptera littoralis, foliar, 72 h. As to the method: Five concentrations (200, 100, 50, 25, 12.5 ppm) were designed for this synthetic compound and the reference Diflubenzuron compound as the dynamic ingredients based on mg/L via diluting the commercial formulation.
[…] Larvae of the second and fourth instars of each checked strain are prepared with treated leaves in gauze-covered glass containers for 72 hrs. An untreated control is made in which leaves are dipped in triton x-100 and distilled water only. Then the preserved leaves were removed & fresh, untreated leaves were provided for 72 hours. Three replicates (10 larvae each) were checked for each concentration. Daily inspection was carried out for all treatments and mortality percentages were recorded 3 days (72 hours) after treatment. The average mortality percentage was corrected employing Abbott's formula. The corrected mortality rate for each of the previously synthesized compounds is statistically calculated according to Finney (1970). Through this rate, the corresponding concentration test lines (LDP lines) are assessed.

Where [1] appears, read: 2nd instar larvae, laboratory strain, after 72 hrs of treatment.
[2] abbreviates: 4th instar larvae, laboratory strain, after 72 hrs of treatment.
[3] abbreviates: read-out: LC50 (mg/L) at 95%, 2nd instar larvae, laboratory strain, after 72 hrs of treatment.
Where [4] appears, read: read-out: LC50 (mg/L) at 95%, 4th instar larvae, laboratory strain, after 72 hrs of treatment.

Converted amounts (≈) assume the structure as drawn. Read-outs that look alike come from different tables or passages of the source.

Turning to `O=C(NC(=S)Nc1ncccn1)c1cc([N+](=O)[O-])cc([N+](=O)[O-])c1` [Compound 1, 3,5-dinitro-N-(pyrimidin-2-ylcarbamothioyl)benzamide], the Toxicity index % by setting is: (2nd instar larvae) 23.7%; (4th instar larvae) 33.4%. The “LC50 (mg/L) at 95%” value under setting [1] was “about 190.0 mg/L”. The “LC90 (mg/L) at 95%” value was found to be 1713.2 mg/L (≈ 4920 µM) under setting [1] and 4020.4 mg/L (≈ 11500 µM) under setting [2]. In addition, the LC50 under setting [3] turned out to be 190 mg/L (≈ 546 µM) and the LC50 under setting [4] was about 430 mg/L (≈ 1240 µM).
Regarding `O=C(NC(=O)c1c(F)cccc1F)Nc1ccc(Cl)cc1` [Diflubenzuron, reference compound], the Toxicity index % reads like this: (2nd instar larvae) 100%; (4th instar larvae) 100%. Also, the “LC90 (mg/L) at 95%” value worked out at 520.0 mg/L (≈ 1670 µM) under setting [1] and 1540.5 mg/L (≈ 4960 µM) under setting [2]. Further, the LC50 stood at 45.2 mg/L (≈ 145 µM) under setting [3] and 144 mg/L (≈ 464 µM) under setting [4].
